Tested on: female NMRI mice
Assay: Anorectic effect: cumulative condensed milk consumption of treated compared with control animals
Assay type: in vivo
Conditions: oral dose 50 mg/kg by gavage, female NMRI mice after withdrawal of food for 24 hours; for Reduction in the cumulative milk consumption as % of the control: compared with vehicle-treated control animals; for cumulative milk consumption of the treated animals: condensed milk offered 30 minutes after administration, consumption determined for 7 hours
Experimental: The anorectic effect was tested on female NMRI mice. After withdrawal of food for 24 hours, the test product was administered by gavage. The animals were housed singly with free access to drinking water and were offered condensed milk 30 minutes after administration of the product. The condensed milk consumption was determined every half hour for 7 hours, and the general wellbeing of the animals was observed. The measured milk consumption was compared with the vehicle-treated control animals.

SMILES	Reduction in the cumulative milk consumption as % of the control	cumulative milk consumption of the treated animals
CC(C)N1CC2N(C(=O)C(NS(C)(=O)=O)CN2S(=O)(=O)c2ccc(Cl)cc2Cl)C(Cc2ccc(Cl)cc2)C1=O (stereo not shown) [Example 9, N-[6-(4-Chlorobenzyl)-1-(2,4-dichlorobenzenesulfonyl)-8-isopropyl-4,7-dioxooctahydropyrazino[1,2-a]pyrimidin-3-yl]methanesulfonamide]	47 % of the control	5/2.06 ml
CC(C)N1CC2N(C(=O)C(N(C)C)CN2S(=O)(=O)c2ccc(Cl)cc2Cl)C(Cc2ccc(Cl)cc2)C1=O (stereo not shown) [Example 5, 6-(4-Chlorobenzyl)-1-(2,4-dichlorobenzenesulfonyl)-3-dimethylamino-8-isopropylhexahydropyrazino[1,2-a]pyrimidine-4,7-dione]	31 % of the control	5/2.4 ml

Source: patent US7652007B2, “Nitrogen-substituted hexahydropyrazino[1,2-A]pyrimidine-4,7-dione derivatives, processes for their preparation and their use as medicaments” (Sanofi-Aventis Deutschland GmbH, priority 2003, dated 2010)
